This note sets out measurements from ChEMBL document CHEMBL5550200, “Back-Pocket Optimization of 2-Aminopyrimidine-Based Macrocycles Leads to Potent EPHA2/GAK Kinase Inhibitors” (J Med Chem, 2024).

The target in one test is Ephrin type-A receptor 4 (Homo sapiens, UniProt P54764). The experiment in a line: Induction of stabilization of recombinant EPHA4 (unknown origin) assessed as change in melting temperature by differential scanning fluorimetry assay. (In DSF a fluorescence change marks the thermal transition of the protein.)
Ephrin type-A receptor 4, sequence (P54764 whole entry): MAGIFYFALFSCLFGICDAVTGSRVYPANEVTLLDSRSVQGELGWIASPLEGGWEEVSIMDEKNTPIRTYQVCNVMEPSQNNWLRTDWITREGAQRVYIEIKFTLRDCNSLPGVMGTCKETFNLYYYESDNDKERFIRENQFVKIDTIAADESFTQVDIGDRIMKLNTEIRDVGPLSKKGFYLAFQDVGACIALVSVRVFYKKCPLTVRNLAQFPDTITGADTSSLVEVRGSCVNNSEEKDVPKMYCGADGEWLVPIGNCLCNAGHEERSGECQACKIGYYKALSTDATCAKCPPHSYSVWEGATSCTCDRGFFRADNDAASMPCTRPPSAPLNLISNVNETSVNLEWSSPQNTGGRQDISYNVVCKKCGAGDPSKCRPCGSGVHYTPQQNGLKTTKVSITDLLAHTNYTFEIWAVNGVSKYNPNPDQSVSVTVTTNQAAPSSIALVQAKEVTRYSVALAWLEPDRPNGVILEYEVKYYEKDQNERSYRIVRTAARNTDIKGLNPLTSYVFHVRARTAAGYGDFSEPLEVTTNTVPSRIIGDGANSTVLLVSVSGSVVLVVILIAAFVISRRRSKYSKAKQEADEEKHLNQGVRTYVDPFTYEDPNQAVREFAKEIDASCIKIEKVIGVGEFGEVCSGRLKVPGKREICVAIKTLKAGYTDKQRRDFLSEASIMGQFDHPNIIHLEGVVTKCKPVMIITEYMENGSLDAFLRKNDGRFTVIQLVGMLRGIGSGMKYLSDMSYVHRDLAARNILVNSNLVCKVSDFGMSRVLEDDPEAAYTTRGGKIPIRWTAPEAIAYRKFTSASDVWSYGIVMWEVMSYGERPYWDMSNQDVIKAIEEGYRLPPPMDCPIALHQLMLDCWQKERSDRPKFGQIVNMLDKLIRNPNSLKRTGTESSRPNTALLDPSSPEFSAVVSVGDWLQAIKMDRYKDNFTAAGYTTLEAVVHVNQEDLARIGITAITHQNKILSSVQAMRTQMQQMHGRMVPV
The target in test [1] is Ephrin type-A receptor 7 (Homo sapiens) (UniProt Q15375). In words: Induction of stabilization of recombinant EPHA7 (unknown origin) assessed as change in melting temperature by differential scanning fluorimetry assay.
Ephrin type-A receptor 7 (Homo sapiens), sequence (Q15375 28-998 limits assumed): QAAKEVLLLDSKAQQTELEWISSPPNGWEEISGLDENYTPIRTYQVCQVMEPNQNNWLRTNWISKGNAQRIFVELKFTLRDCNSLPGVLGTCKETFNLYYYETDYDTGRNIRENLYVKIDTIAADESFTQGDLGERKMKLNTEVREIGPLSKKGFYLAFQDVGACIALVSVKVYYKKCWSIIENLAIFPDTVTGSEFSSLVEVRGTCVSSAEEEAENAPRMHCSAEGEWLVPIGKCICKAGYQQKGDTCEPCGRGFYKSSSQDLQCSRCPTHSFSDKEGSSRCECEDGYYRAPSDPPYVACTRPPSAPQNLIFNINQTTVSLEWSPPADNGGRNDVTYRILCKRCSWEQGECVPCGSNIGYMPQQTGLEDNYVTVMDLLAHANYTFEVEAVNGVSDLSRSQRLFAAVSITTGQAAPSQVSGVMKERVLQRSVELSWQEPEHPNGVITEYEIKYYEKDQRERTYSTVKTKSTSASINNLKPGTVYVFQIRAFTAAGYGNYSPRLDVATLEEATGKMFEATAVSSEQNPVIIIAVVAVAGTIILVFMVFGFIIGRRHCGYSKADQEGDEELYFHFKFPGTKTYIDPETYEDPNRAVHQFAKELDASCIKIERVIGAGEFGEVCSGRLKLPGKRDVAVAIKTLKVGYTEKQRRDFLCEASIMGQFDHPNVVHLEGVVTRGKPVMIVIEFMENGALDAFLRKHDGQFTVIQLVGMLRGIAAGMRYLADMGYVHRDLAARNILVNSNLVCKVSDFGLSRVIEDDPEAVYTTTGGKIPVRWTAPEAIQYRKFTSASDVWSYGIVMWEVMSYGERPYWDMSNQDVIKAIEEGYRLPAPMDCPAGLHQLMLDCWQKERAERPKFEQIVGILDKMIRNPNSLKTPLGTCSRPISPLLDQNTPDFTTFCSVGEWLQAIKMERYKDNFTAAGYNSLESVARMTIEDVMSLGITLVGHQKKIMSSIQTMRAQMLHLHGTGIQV
Test [2] has as its target T1, Ephrin type-B receptor 1 (Homo sapiens) (UniProt P54762).
T1 sequence (whole entry): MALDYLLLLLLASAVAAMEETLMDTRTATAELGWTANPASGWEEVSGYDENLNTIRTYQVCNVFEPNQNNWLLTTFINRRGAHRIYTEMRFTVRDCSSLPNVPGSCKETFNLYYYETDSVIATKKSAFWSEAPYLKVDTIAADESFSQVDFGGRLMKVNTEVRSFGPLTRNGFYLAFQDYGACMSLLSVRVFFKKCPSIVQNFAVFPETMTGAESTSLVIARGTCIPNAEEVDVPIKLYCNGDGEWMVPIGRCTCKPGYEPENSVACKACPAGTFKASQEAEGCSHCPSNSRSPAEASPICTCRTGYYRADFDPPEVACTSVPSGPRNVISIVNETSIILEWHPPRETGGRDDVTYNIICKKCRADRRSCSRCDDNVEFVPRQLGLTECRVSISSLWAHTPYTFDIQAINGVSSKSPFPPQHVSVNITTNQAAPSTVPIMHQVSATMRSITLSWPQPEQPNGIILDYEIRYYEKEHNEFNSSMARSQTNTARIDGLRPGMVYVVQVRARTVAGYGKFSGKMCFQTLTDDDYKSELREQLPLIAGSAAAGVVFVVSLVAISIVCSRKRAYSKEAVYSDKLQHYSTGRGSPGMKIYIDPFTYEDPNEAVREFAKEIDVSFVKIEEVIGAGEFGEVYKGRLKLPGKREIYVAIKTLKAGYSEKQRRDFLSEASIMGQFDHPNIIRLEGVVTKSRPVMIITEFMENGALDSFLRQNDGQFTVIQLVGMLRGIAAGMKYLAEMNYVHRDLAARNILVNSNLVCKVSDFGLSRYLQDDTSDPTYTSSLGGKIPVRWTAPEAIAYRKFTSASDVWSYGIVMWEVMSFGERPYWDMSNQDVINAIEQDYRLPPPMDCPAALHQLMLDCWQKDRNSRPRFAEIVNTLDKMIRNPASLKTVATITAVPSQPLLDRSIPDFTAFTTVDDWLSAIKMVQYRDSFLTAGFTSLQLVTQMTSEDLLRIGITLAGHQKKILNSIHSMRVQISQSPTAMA
The experiment in a line: Induction of stabilization of recombinant EPHB1 (unknown origin) assessed as change in melting temperature by differential scanning fluorimetry assay.

Test [3] concerns the target T2, Ephrin type-B receptor 3 (Homo sapiens) (UniProt P54753).
T2 sequence (whole entry): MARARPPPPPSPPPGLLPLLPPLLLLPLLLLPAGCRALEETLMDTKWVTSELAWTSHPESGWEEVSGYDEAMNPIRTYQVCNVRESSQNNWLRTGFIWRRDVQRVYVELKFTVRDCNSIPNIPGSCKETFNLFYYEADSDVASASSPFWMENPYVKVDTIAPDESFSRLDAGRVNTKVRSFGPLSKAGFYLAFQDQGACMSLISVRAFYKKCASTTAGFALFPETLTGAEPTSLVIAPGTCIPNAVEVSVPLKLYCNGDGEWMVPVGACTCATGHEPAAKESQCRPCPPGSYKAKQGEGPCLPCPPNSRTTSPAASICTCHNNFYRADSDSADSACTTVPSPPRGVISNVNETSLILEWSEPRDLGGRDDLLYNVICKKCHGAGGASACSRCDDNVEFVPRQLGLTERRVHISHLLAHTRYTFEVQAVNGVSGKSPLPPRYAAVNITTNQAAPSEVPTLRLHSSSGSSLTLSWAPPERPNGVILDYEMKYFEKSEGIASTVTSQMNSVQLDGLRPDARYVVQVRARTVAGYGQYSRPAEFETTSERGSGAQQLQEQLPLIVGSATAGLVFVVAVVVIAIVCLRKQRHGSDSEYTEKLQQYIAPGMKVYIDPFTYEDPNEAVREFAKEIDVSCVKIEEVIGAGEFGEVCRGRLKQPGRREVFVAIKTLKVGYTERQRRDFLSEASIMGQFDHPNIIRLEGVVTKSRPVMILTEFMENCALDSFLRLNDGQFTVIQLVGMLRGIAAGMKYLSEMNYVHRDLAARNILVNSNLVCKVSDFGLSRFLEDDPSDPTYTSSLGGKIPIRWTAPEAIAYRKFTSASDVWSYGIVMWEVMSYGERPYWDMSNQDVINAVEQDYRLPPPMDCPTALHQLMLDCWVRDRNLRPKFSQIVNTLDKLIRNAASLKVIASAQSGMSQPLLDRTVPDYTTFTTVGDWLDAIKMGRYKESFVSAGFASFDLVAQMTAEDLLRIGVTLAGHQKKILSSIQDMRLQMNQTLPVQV
In words: Induction of stabilization of recombinant EPHB3 (unknown origin) assessed as change in melting temperature by differential scanning fluorimetry assay.

Test [4] concerns the target Vascular endothelial growth factor receptor 1 (Homo sapiens, UniProt P17948). In words: Induction of stabilization of recombinant FLT1 (unknown origin) assessed as change in melting temperature by differential scanning fluorimetry assay.
The next test addresses Ephrin type-A receptor 2 (Homo sapiens, UniProt P29317).
The target of test [5] is Ephrin type-A receptor 5 (Homo sapiens) (UniProt P54756).
Description: Induction of stabilization of recombinant EPHA5 (unknown origin) assessed as change in melting temperature by differential scanning fluorimetry assay
Test [6] has as its target Fibroblast growth factor receptor 1 (Homo sapiens, UniProt P11362).
Description: Induction of stabilization of recombinant FGFR1 (unknown origin) assessed as change in melting temperature by differential scanning fluorimetry assay
The target in test [7] is Fibroblast growth factor receptor 2 (Homo sapiens) (UniProt P21802).
Description: Induction of stabilization of recombinant FGFR2 (unknown origin) assessed as change in melting temperature by differential scanning fluorimetry assay
Test [8] has as its target T3, Cyclin-G-associated kinase (Homo sapiens) (UniProt O14976).
T3 sequence (whole entry): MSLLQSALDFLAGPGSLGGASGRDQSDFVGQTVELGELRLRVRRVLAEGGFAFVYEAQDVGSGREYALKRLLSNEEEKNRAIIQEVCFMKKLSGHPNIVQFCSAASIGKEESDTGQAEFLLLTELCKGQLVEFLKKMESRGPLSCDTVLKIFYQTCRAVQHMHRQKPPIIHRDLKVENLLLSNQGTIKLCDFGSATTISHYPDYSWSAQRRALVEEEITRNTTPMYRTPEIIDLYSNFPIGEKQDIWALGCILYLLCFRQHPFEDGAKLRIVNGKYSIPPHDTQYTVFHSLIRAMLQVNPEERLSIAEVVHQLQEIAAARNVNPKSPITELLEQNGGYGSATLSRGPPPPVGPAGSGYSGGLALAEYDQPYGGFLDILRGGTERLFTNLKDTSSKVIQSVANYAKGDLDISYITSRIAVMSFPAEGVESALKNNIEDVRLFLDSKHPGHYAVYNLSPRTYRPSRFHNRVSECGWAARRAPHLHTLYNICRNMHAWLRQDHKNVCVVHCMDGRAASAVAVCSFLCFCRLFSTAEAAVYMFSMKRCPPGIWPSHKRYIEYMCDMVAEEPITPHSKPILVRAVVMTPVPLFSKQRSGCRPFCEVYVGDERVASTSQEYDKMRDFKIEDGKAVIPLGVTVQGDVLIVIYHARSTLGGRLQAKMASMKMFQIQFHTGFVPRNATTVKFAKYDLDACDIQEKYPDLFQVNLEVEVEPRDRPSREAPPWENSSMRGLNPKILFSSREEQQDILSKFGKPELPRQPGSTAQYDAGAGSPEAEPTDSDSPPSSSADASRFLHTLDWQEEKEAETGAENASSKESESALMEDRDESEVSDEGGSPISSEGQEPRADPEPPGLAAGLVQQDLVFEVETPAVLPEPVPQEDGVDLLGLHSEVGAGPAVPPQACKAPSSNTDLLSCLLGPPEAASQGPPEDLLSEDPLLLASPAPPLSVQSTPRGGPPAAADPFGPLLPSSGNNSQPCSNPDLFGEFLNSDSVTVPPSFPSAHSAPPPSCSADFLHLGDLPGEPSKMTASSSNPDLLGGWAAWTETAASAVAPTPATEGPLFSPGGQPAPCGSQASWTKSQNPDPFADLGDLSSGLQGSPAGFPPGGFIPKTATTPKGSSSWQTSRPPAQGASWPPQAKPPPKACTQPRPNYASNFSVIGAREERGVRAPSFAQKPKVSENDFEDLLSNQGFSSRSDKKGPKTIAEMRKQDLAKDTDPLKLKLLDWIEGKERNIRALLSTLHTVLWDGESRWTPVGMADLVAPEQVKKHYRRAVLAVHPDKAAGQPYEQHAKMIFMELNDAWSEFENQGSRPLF
Description: Induction of stabilization of recombinant GAK (unknown origin) assessed as change in melting temperature by differential scanning fluorimetry assay

Fibroblast growth factor receptor 1, sequence (P11362 22-822 limits assumed): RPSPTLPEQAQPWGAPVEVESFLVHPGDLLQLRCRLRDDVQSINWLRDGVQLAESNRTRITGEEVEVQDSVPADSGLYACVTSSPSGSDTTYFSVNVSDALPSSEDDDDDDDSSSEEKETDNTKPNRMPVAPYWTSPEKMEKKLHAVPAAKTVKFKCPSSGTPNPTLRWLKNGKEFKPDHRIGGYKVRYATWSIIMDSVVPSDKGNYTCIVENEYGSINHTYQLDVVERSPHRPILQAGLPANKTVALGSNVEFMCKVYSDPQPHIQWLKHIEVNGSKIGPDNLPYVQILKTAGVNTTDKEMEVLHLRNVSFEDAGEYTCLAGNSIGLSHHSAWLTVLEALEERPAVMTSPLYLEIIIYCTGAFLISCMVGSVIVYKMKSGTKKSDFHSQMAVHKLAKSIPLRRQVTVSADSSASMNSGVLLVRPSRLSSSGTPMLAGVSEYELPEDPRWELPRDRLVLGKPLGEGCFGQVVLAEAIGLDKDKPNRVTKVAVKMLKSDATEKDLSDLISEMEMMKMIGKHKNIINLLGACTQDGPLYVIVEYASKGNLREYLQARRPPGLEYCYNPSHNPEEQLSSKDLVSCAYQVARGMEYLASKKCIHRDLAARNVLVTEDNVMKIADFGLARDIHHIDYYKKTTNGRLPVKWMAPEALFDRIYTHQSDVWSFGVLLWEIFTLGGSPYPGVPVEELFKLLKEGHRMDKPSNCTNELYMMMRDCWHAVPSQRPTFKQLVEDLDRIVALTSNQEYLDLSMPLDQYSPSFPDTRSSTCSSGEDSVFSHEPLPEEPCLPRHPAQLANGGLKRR
Vascular endothelial growth factor receptor 1, sequence (P17948 whole entry): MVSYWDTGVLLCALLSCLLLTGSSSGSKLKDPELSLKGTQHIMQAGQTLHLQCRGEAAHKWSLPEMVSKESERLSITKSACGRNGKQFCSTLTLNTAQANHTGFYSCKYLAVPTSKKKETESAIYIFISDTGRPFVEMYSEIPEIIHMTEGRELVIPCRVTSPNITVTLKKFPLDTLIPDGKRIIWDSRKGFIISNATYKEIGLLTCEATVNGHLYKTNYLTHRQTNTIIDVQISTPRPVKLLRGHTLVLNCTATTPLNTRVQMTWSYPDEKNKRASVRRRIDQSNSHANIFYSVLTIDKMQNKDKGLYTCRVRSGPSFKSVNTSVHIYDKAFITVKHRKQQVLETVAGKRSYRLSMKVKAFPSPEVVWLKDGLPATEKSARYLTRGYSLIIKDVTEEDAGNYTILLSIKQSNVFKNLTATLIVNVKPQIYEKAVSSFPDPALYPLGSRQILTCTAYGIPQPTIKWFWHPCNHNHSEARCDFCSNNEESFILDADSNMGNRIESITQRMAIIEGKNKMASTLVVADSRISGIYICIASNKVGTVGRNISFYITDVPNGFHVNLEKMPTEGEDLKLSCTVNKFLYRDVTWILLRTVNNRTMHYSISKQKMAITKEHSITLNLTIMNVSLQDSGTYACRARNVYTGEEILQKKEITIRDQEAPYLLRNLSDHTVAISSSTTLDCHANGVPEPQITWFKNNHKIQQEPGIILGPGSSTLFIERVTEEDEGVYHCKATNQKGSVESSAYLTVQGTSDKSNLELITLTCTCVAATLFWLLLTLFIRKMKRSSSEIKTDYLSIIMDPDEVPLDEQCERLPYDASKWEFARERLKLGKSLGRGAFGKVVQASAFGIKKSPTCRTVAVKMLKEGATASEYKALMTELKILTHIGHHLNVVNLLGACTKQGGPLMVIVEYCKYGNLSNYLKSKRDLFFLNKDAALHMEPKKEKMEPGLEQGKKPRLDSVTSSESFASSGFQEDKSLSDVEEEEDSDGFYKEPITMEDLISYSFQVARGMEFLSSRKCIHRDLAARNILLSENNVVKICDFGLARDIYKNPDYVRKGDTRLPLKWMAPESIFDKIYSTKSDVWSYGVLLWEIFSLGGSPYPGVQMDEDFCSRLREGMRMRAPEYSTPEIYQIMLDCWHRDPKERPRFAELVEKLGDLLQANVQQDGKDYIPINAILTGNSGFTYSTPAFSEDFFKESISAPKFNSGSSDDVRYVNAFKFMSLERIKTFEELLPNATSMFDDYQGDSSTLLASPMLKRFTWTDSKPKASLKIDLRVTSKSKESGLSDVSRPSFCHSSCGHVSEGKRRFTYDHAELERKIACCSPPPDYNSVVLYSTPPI
Ephrin type-A receptor 2, sequence (P29317 whole entry): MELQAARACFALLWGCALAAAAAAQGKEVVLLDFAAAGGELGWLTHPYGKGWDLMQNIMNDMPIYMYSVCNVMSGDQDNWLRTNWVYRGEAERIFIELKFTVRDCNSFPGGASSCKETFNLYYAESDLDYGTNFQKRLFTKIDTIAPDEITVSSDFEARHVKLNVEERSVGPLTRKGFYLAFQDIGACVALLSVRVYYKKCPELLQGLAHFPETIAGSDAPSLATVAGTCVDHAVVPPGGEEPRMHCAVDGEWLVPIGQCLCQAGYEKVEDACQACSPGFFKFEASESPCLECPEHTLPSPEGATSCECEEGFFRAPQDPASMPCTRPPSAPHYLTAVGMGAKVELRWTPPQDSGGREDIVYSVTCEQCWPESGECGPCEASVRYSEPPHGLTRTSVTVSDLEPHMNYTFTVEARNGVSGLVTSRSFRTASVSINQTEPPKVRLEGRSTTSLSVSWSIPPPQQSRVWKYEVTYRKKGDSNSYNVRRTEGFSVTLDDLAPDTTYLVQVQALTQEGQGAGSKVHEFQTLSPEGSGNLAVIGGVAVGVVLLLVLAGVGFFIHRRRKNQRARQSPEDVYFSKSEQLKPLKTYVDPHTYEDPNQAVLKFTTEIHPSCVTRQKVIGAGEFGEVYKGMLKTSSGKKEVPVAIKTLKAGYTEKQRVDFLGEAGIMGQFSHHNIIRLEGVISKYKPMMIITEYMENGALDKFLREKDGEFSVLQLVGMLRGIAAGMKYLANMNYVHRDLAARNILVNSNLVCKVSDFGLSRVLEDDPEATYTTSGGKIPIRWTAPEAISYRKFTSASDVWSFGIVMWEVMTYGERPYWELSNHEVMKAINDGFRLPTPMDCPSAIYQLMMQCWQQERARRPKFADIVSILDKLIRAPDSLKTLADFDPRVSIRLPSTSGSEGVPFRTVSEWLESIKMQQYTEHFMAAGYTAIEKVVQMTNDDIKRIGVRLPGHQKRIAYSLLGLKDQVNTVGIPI
Description for Ephrin type-A receptor 2: Induction of stabilization of recombinant EPHA2 (D596 to G900 residues) (unknown origin) expressed in Escherichia coli rosetta BL21(D3)-R3-pRARE2 competent cells assessed as change in melting temperature by differential scanning fluorimetry assay

As for `CSc1cc(-c2cnc3nc2NCCCNS(=O)(=O)c2cccc(c2)N3)ccc1F`, the deltaTm turned out to be 3.4 K at Ephrin type-A receptor 4; 2 K in test [1]; 3 K in test [2]; 4.3 K in test [3]; 4.7 K in test [4]; 6.9 K on Ephrin type-A receptor 2. In addition, the deltaTm is 4.3 K in [5], 3.3 K in test [6], 4.1 K in [7] and 7.8 K in test [8].
In the case of `COc1cc(-c2cnc3nc2NCCCNS(=O)(=O)c2cccc(c2)N3)cc(OC)c1OC`, the deltaTm on Ephrin type-A receptor 4 was 2.2 K; in test [1], -0.3 K; in test [2] it was 2.2 K; in test [3], 2.4 K; in test [4] it was 0.7 K; on Ephrin type-A receptor 2 it was 6 K. The deltaTm in test [5] was determined as 2.9 K; in [6], 0.8 K; in test [7], 1.2 K; in [8], 5.9 K.
In the case of `COc1cc(-c2cnc3nc2NCCCNS(=O)(=O)c2cccc(c2)N3)c(F)cc1Cl`, the deltaTm on Ephrin type-A receptor 4 was 4.7 K; in test [1] it was 0.4 K; in test [2], 4.9 K; in [3], 5.8 K; in test [4], 3 K; at Ephrin type-A receptor 2, 9.8 K. Further, the deltaTm in test [5] was found to be 6 K; in [6], 2.7 K; in test [7], 3.4 K; in [8] it was 9.3 K.
With `COc1cc(-c2cnc3nc2NCCCNS(=O)(=O)c2cccc(c2)N3)cc(C(F)(F)F)c1`, the deltaTm on Ephrin type-A receptor 4 came to 0.8 K; in [1], 1.4 K; in [2], 0.9 K; in [3], 1.1 K; in [4], 5.3 K; at Ephrin type-A receptor 2 it was 1.8 K. Besides, the deltaTm in test [5] came out at 1.3 K; in [6], 4.9 K; in test [7] it was 5.8 K; in test [8], 3.3 K.
`COC(=O)COc1ccc2cc1S(=O)(=O)NCCCNc1nc(ncc1-c1ccc(F)c(OC)c1)N2`: the deltaTm on Ephrin type-A receptor 4 worked out at 1.6 K; in test [1], 0.4 K; in test [2], 1 K; in test [3], 1.4 K; in test [4], 0.3 K; on Ephrin type-A receptor 2, 2.4 K. Moreover, the deltaTm in test [5] was 2.3 K; in test [6], 0.5 K; in [7] it was 1.3 K; in test [8], 3.7 K.
Take `COC(=O)c1ccc(-c2cnc3nc2NCCCNS(=O)(=O)c2cccc(c2)N3)cc1OC`: the deltaTm came to 1.3 K on Ephrin type-A receptor 4; 0.1 K in [1]; 1.1 K in test [2]; 1.3 K in test [3]; 2.6 K in test [4]; 2.9 K on Ephrin type-A receptor 2. Besides, the deltaTm in test [5] amounted to 1.8 K; in test [6], 0.6 K; in test [7] it was 1.8 K; in test [8], 3.1 K.
For `COc1cc(-c2cnc3nc2NCCCNS(=O)(=O)c2cc(ccc2Cl)N3)ccc1F`, the deltaTm is 5.1 K on Ephrin type-A receptor 4; 1.6 K in [1]; 2.5 K in test [2]; 1.6 K in test [3]; 2.4 K in [4]; 6.3 K at Ephrin type-A receptor 2. In addition, the deltaTm in [5] is 5 K; in [6] it was 1.9 K; in test [7], 3.6 K; in test [8], 8.1 K.
For the molecule `O=S1(=O)NCCCNc2nc(ncc2-c2cc(Cl)c(Cl)cc2F)Nc2cccc1c2`, the deltaTm came out at 3.8 K on Ephrin type-A receptor 4; 0.4 K in [1]; 3.5 K in [2]; 5.4 K in test [3]; 5.4 K in test [4]; 9.5 K at Ephrin type-A receptor 2. In addition, the deltaTm in test [5] is 5.6 K; in [6] it was 4.5 K; in test [7], 5.7 K; in test [8] it was 6.5 K.
